According to publication PMC11901438, “Synthesis and Evaluation of Boron-Containing Heterocyclic Compounds with Antimicrobial and Anticancer Activities” (Molecules, 2025):
Converted amounts (≈) assume the structure as drawn.

Tests used:
[1] = tested on: M. tuberculosis H37RV ATCC 27294 strain; test: Resazurin microtiter assay (REMA), MIC90; type: cell-based; conditions: Mycobacterium tuberculosis, cut-off 25 µM
[2] = tested on: SCC-25 cells; test: MTT anticancer assay in SCC-25 cells; type: cell-based; conditions: for IC50: Homo sapiens, SCC-25, 24 h, MTT, 24 h; for SI (selectivity index): NOK-si versus SCC-25
Experimental: (§1) Boronic acid and benzoboroxole derivatives have been identified as potential anticancer agents. To investigate their efficacy against head and neck cancer cell lines, SCC-25 cells were utilized in this study, as a model for oral squamous cell carcinoma. Additionally, cytotoxicity was performed in normal oral keratinocytes NOK-si cells to evaluate the selective index of the compounds. […] The selectivity of the compounds is quantified by the selectivity index (SI), with those with an SI greater than 3.0 being considered promising for further evaluation, in accordance with internal protocols.
(§2) The SCC-25 was purchased from Rio de Janeiro Cell Bank, and NOK-si was kindly provided by Prof. Carlos Rossa from the School of Dentistry—UNESP. The cell lines were initially thawed and cultured in 25 cm^2 cell culture flasks. Cell growth was monitored using a microscope, and the culture medium was changed periodically. Upon reaching confluency, cell dissociation was achieved by adding 5 mL of trypsin (Sigma-Aldrich, St Louis, MO, USA) and incubating the bottles in a CO2 incubator for 10 min. Subsequently, the cells were transferred to 15 mL Falcon tubes and centrifuged at 2000 rpm for 10 min. Cell counting was performed using a Countess II FL automated cell counter (ThermoFischer, Waltham, MA, USA). The cells were seeded at a density of 30,000 cells per well in 96-well plates. The plates were then incubated at 37 °C in 5% CO2 for 24 h. Following this, test compounds were incubated for another 24 h at 10 different concentrations: 50, 25, 12.5, 6.25, 3.12, 1.56, 0.78, 0.39, 0.19, and 0.097 µg/mL. After the specified time, MTT reagent (3 mg/mL) (Sigma-Aldrich, St Louis, MO, USA) dissolved in phenol-free RPMI 1640 was added and incubated for 4 h. The formed MTT crystals were solubilized using 2-propanol P.A (Sigma-Aldrich, St Louis, MO, USA) with agitation. Absorbance was read at 562 nm using an EZ Read 400 microplate reader (Biochrom, Cambridge, UK) and ADAP 2.0 Biochrom software (version 2.0). IC50 values and graphs were calculated by Dr. Paula Aboud Barbugli using Excel and Prism software (version 10.4.1). The MTT assay results were evaluated for normality using the Shapiro–Wilk test, followed by one-way ANOVA with Tukey’s post hoc test at a significance level of 5%.

[3] = tested on: NOK-si cells; test: MTT cytotoxicity assay in normal oral keratinocytes NOK-si; type: cell-based; conditions: Keratinocyte, 24 h, read-out: NOK-si IC50
Experimental: as §1, §2

[4] = tested on: HaCaT cell line; test: Resazurin cytotoxicity assay using HaCaT cells; type: cell-based, human; conditions: compared to the benzoboroxole derivatives 44 and 45
Experimental: For the cytotoxicity assay, the HaCaT cell line, which is characterized as immortalized normal human keratinocytes, was used.
For the cytotoxicity assay, the HaCat cell line, characterized as immortalized normal human keratinocytes, was used. The cells were maintained in (DMEM) supplemented with 10% of bovine fetal serum (BFS) (Sigma-Aldrich, St Louis, MO, USA) in cell culture bottles with 5% CO2 at 37 °C. After a confluence of 75%, the cells were treated with trypsin + EDTA 0.25%, centrifugated at 1500 rpm for 10 min, and 5 × 10^4 cells/well were seeded in 96-well plates for incubation for 24 h for cell adhesion before treatment. After adhesion, the cells were treated with 100 µL of the compounds 34 and 40, with fungi activity in concentrations between 3.90 and 125 µg/mL. Regarding the controls, DMSO in the concentration range of (1–4%) was used as a positive control for cytotoxicity; the beyond negative control comprised HaCaT cells only in DMEM medium (Sigma-Aldrich, St Louis, MO, USA). After 24 h of treatment, 30 µL of resazurin 50 µM was added to each well for 4 h, and the plates were read at 560 and 600 nm using microplate reader BioTek (Agilent, Santa Clara, CA, USA), Gen 5 software (version 2.09). The […] (IC50) for each compound was determined based on resazurin reduction. Three independent assays were performed.

[5] = tested on: T. rubrum ATCC 28189; test: Antifungal susceptibility test (CLSI M38-A2 microdilution, resazurin), MIC90; conditions: Trichophyton rubrum, ATCC28189, read-out: T. rubrum ATCC 28189 MIC90
[6] = tested on: T. mentagrophytes (ATCC 11481); test: as above; conditions: Trichophyton mentagrophytes, ATCC11481|ATCC28189, read-out: T. mentagrophytes ATCC 28189 MIC90
[7] = tested on: T. rubrum (ATCC 1890, ATCC 18759); parameters: method as in PMID 17588934; conditions: cited from earlier work
[8] = tested on: T. mentagrophytes (ATCC 28185); parameters: method as in PMID 17588934; conditions: cited from earlier work
[9] = tested on: M. audouinii (ATCC 42558); parameters: method as in PMID 17588934; conditions: cited from earlier work
[10] = tested on: M. gypseum (ATCC 24103); parameters: method as in PMID 17588934; conditions: cited from earlier work
[11] = tested on: E. floccosum (ATCC 525066); parameters: method as in PMID 17588934; conditions: cited from earlier work
[12] = tested on: T. mentagrophytes; parameters: method as in PMID 29371574; conditions: cited from earlier work
[13] = tested on: T. rubrum; parameters: method as in PMID 29371574; conditions: cited from earlier work
[14] = parameters: method as in PMID 26640371; conditions: cited from earlier work
[15] = tested on: C. albicans ATCC 90028; test: Antifungal susceptibility test (CLSI M27-A3 microdilution, resazurin), MIC90; conditions: Candida albicans, ATCC90028, read-out: C. albicans ATCC 90028 MIC90
[16] = target: leucyl-tRNA synthetase (LeuRS); parameters: method as in PMID 28953378, PMID 38365949; conditions: cited from earlier work
[17] = tested on: M. tuberculosis H37Rv strains; conditions: cited from earlier work

Compound	MIC90 [1] [µM]	IC50 [2] [µM]	SI (selectivity index) [2]	CC50 [3] [µM]	MIC90 [5] [µM]	MIC90 [6] [µM]	also measured
O=C(Nc1ccc(N2CCCCCC2)c(F)c1)c1ccc(B(O)O)cc1 [Compound 40, (4-{[4-(Azepan-1-yl)-3-fluorophenyl]carbamoyl}phenyl)boronic acid]	> 25	85.1	1.49	127	88 (≈ 31.3 µg/mL)	42 (≈ 15 µg/mL)	cytotoxic effects in HaCaT cells (comparison in words) [4]: higher cytotoxic effects
OB1OCc2cc(F)ccc21 [Tavaborole]							MIC [7]: 2.0 mg/L (≈ 13.2 µM); MIC [8]: 2.0 mg/L (≈ 13.2 µM); MIC [9]: 2.0 mg/L (≈ 13.2 µM); MIC [10]: 2.0 mg/L (≈ 13.2 µM); MIC [11]: 1.0 mg/L (≈ 6.58 µM); MIC (fungistatic effects) [12]: 8 mg/L (≈ 52.7 µM); MIC (fungistatic effects) [13]: 8 mg/L (≈ 52.7 µM); rate of complete cure [14]: ≤ 10%; rate of mycological cure [14]: up to 36%
CCC(C)n1ncn(-c2ccc(N3CCN(c4ccc(OCC5COC(Cn6cncn6)(c6ccc(Cl)cc6Cl)O5)cc4)CC3)cc2)c1=O (stereo not drawn) [Itraconazole]							MIC90 [15]: 0.00034 µM (≈ 0.00024 µg/mL)
O=C(Nc1ccc(N2CCCCCC2)c(F)c1)c1cccc(B(O)O)c1 [Compound 34, (3-{[4-(Azepan-1-yl)-3-fluorophenyl]carbamoyl}phenyl)boronic acid]	> 25	67.6	1.91	129	42 (≈ 15 µg/mL)	21 (≈ 7.48 µg/mL)	cytotoxic effects in HaCaT cells (comparison in words) [4]: higher cytotoxic effects
O=C(Nc1ccc(N2CCOCC2)c(F)c1)c1ccc(B(O)O)cc1 [Compound 39, {4-[(3-Fluoro-4-morpholinophenyl)carbamoyl]phenyl}boronic acid]	> 25	74.1	1.04	77.1	363 (≈ 125 µg/mL)	363 (≈ 125 µg/mL)	
O=C(Nc1ccc(N2CCN(c3ccc(F)cc3)CC2)c(F)c1)c1ccc(B(O)O)cc1 [Compound 37, [4-({3-Fluoro-4-[4-(4-fluorophenyl)piperazin-1-yl]phenyl}carbamoyl)phenyl]boronic acid]	> 25	79.1	1.55	123	286 (≈ 125 µg/mL)	286 (≈ 125 µg/mL)	
NC[C@H]1OB(O)c2c(OCCO)ccc(Cl)c21 [ganfeborole, (S)-3-(aminomethyl)-4-chloro-7-(2-hydroxyethoxy)benzo[c][1,2]oxaborol-1(3H)-ol]							IC50 [16]: 0.2 µM; MIC90 [17]: 0.08 µM (≈ 0.0206 µg/mL); MIC against M. tuberculosis H37Rv strains [17]: 0.08 µM (≈ 0.0206 µg/mL)
